# According to article PMC6967409 (Frontiers in Chemistry, 2020):
# Where “and” joins values, the source holds several entries; their conditions need not be identical. Identical values can stand only once. Like-named read-outs stand apart in the source and are kept apart here.
# Tests used:
# [1] = test system: P. falciparum Dd2; assay: Metabolic (parasite LDH) assay, asexual ring stage parasites, 48 h; format: cell-based; conditions: Plasmodium falciparum, pLDH, Dd2 CQ, pyrimethamine resistant
# Method: (§1) Working solutions of the derivatives were prepared from a 10 mM stock solution in 100% DMSO in supplemented RPMI 1640 media containing Albumax II with a final DMSO concentration of <0.1%, previously determined as being non-toxic to intraerythrocytic asexual parasites and gametocytes. Dose responses were assayed using a two-fold serial drug dilution on in vitro >95% ring stage intraerythrocytic P. falciparum parasites at 37°C under 90% N2, 5% CO2, and 5% O2 atmospheric conditions, detecting both parasite lactate dehydrogenase (pLDH) activity as a metabolic marker following a 48 h drug exposure (1.5–2% parasitemia and 2% hematocrit; Makler et al., [1993]) and SYBR Green I fluorescence as proliferative marker following a 96 h drug exposure (1% parasitemia and 1% hematocrit). […] Data analysis was performed using GraphPad Prism 7.
# [2] = test system: P. falciparum NF54 late stage gametocytes (>90% stage IV and V); assay: Gametocytocidal luciferase reporter assay, late stage, 72 h; format: cell-based, Plasmodium falciparum; conditions: Plasmodium falciparum, NF54, 72 h, read-out: Late Stage (LG, Luc 72 h) IC50, >90% stage IV and V gametocytes, ±SEM
# Method: (§2) P. falciparum parasites (NF54, K1, and W2) were cultured in vitro in human erythrocytes (A^+ or O^+) under 90% N2, 5% CO2, and 5% O2 atmospheric conditions with supplemented RPMI 1640 media (Sigma Aldrich) containing Albumax II, as previously described (Verlinden et al., [2011]). This study was carried out according the guidelines set out by the Faculty of Health Sciences Ethical Committee, Ethical Clearance no. EC-120821/077. The protocol was approved by the Faculty of Health sciences ethical committee at the University of Pretoria. All subjects gave written informed consent in accordance with the Declaration of Helsinki. Parasite proliferation was monitored microscopically using Giemsa stained smears. Synchronized ring stage parasites (>95%) were obtained using a 5% D-sorbitol (Sigma Aldrich) treatment. […] Gametocyte cultures were kept stationary under 90% N2, 5% CO2, and 5% O2 atmospheric conditions at 37°C and treated with 50 mM N-acetyl-glucosamine (NAG) to eliminate residual invasion of asexual parasites.
# (§3) Gametocytocidal activity was determined using the luciferase reporter line (Reader et al., [2015]) to derive dose responses with two-fold serial drug dilutions for 48 h against early stage gametocytes (day 5 post-induction population, >90% stage I–III) and 10-fold serial drug dilutions for 72 h against late stage gametocytes (day 10 post-induction population, >90% late stage IV–V) (2% gametocytemia, 2% hematocrit), at 37°C under 90% N2, 5% CO2, and 5% O2 atmospheric conditions.
# [3] = test system: P. falciparum NF54 early stage gametocytes (>90% stage I–III); assay: Gametocytocidal luciferase reporter assay, early stage, 48 h; format: cell-based; conditions: Plasmodium falciparum, NF54, 48 h, read-out: Early Stage (EG, Luc 48 h) IC50
# Method: as §2, §3
# [4] = test system: asexual P. falciparum NF54, Dd2, K1, W2; assay: Asexual P. falciparum, metabolic (pLDH) and proliferative (SYBR Green I) platforms; format: cell-based; conditions: Plasmodium falciparum
# Method: Data analysis was performed using GraphPad Prism 7.
# The in vitro activities of the new derivatives were determined against drug sensitive NF54 and multi-drug resistant Dd2, K1, and W2 intraerythrocytic asexual P. falciparum malaria parasite strains using both a metabolic (parasite LDH) and a proliferative (SYBR Green I fluorescence) assay readout (Table 1).
# [5] = test system: P. falciparum W2; assay: Proliferative (SYBR Green I) assay, asexual parasites, 96 h; format: cell-based; conditions: Plasmodium falciparum, ±SEM
# Method: as §2, §1
# [6] = test system: P. falciparum NF54; assay: as above; format: cell-based; conditions: Plasmodium falciparum, ±SEM
# Method: as §2, §1
# [7] = test system: P. falciparum K1; assay: as above; format: cell-based; conditions: Plasmodium falciparum, ±SEM
# Method: as §2, §1
# [8] = Cytotoxicity, MTT assay; format: cell-based; conditions: Chinese hamster, CHO cells
# Method: (§4) Cytotoxicity (EC50) was determined against Chinese hamster ovarian (CHO) using a 3-(4,5-dimethylthiazol-2-yl)-2,5-diphenyltetrazolium bromide (MTT) assay and hepatocellular carcinoma cells (HepG2) using the Cytoselect LDH cytotoxicity assay kit (Cell Biolabs).
# [9] = test system: P. falciparum NF54; assay: Metabolic (parasite LDH) assay, asexual ring stage parasites, 48 h; format: cell-based; conditions: Plasmodium falciparum, pLDH, CQ-sensitive NF54
# Method: as §2, §1
# [10] = Cytotoxicity, Cytoselect LDH cytotoxicity assay kit; format: cell-based; conditions: human, HepG2 cells
# Method: as §4
# [11] = test system: HepG2 cells; assay: HepG2 cytotoxicity bioluminescence assay (CellTiterGlo, ATP); format: cell-based, human; conditions: two biological replicates listed in one cell
# Method: (§5) Briefly, HepG2-CD81 cells were seeded into 1,536 well plates containing 50 nL of test and control compounds diluted into DMSO. […] Next, 2 μL of luciferin reagent (Promega BrightGlo) was added to each well and luciferase activity was detected using a Perkin Elmer Envision plate reader. […] In parallel, plates were processed without sporozoites for HepG2 toxicity measurements.
# (§6) In continuation of the transmission blocking theme, it is important to establish activities against liver stage parasites. […] This assay uses ultra-high-throughput screening methods optimized for a 1536-well format and a HepG2 human hepatoma cell line. […] To establish selectivity of the compounds for the parasite in the liver stage of infection, cytotoxicity was determined by measuring bioluminescence from the reaction between free ATP of compound-treated, uninfected hepatocytes and a luciferase reporter system.
# [12] = as above; format: cell-based, human; conditions: human, uninfected HepG2-CD81 cells; for IC50 at 72 h: two biological replicates listed in one cell; for EC50 at 72 h: uninfected HepG2, ATP bioluminescence
# Method: as §5, §6
# [13] = test system: P. berghei ANKA GFP-Luc-SMcon sporozoites; assay: P. berghei-luciferase liver stage bioluminescence assay (causal prophylactic mode) in HepG2-CD81 cells; format: cell-based, Plasmodium berghei; conditions: for Emax: 48 h, read-out: P.berghei-Luciferase Liver Stage Bioluminescence Assay: Maximum measured (%); for inhibition at 10 µM: read-out: P. berghei sporozoites Maximum inhibition %
# Method: as §5, §6
# [14] = test system: P. falciparum NF54 late stage gametocytes (>90% stage IV and V); parameters: method as in Coertzen et al. (2018); conditions: read-out: Late Stage (LG, Luc 72 h) IC50; >90% stage IV and V gametocytes; ref Coertzen et al. (2018); cited from earlier work
# [15] = test system: P. falciparum K1; parameters: method as in Coertzen et al. (2018); conditions: SYBR Green I; ref Coertzen et al. (2018); read-out: Proliferative IC50 K1; cited from earlier work
# [16] = test system: P. falciparum NF54; parameters: method as in Coertzen et al. (2018); conditions: pLDH, 48 h; ref Coertzen et al. (2018); read-out: Metabolic IC50 NF54; cited from earlier work
# [17] = test system: P. falciparum W2; parameters: method as in Coertzen et al. (2018); conditions: SYBR Green I; ref Coertzen et al. (2018); read-out: Proliferative IC50 W2; cited from earlier work
# [18] = test system: P. falciparum NF54; parameters: method as in Coertzen et al. (2018); conditions: SYBR Green I; ref Coertzen et al. (2018); read-out: Proliferative IC50 NF54; cited from earlier work
# [19] = test system: P. falciparum NF54 early stage gametocytes (>90% stage I–III); parameters: method as in Coertzen et al. (2018); conditions: read-out: Early Stage (EG, Luc 48 h) IC50; >90% stage I–III gametocytes; ref Coertzen et al. (2018); cited from earlier work
# [20] = test system: P. falciparum Dd2; parameters: method as in Coertzen et al. (2018); conditions: pLDH, 48 h; ref Coertzen et al. (2018); read-out: Metabolic IC50 Dd2; cited from earlier work
# [21] = test system: Chinese hamster ovarian (CHO) cells; conditions: cited from earlier work
# [22] = test system: P. falciparum W2; assay: T0 [3H]-hypoxanthine drug susceptibility assay; format: cell-based; conditions: Plasmodium falciparum
# [23] = >90% stage I–III gametocytes, ±SEM
# [24] = drug-sensitive and -resistant parasites, both assay platforms, read-out: IC50, asexual P. falciparum metabolic activity and proliferation
# [25] = Plasmodium berghei, two biological replicates listed in one cell
# [26] = Plasmodium berghei, two biological replicates listed in one cell, read-out: P.berghei-Luciferase Liver Stage Bioluminescence Assay: IC50
# [27] = read-out: IC50 for drug sensitive NF54 parasites across both assay platforms
structure (smiles),measurement,setting,value
C[C@H]1[C@H](N2CCN(S(=O)(=O)c3ccc(C(F)(F)F)cc3)CC2)O[C@@H]2O[C@@]3(C)CC[C@H]4[C@H](C)CC[C@@H]1[C@@]24OO3 [Compound 18],IC50,[1],74.3 ± 6.42 nM
same,IC50,[2],4.8 ± 4.2 nM
same,IC50,[3]; [23],89.7 ± 28.8 nM
same,IC50,[4]; [24],15 to 74 nM
same,IC50,[5],23.8 ± 1.4 nM
same,IC50,[6],13.9 ± 1.2 nM
same,IC50,[7],22 ± 2.7 nM
same,EC50,[8],154000 nM
same,IC50,[9],15.3 ± 2 nM
same,EC50,[10],217 nM
C[C@H]1[C@H](N2CCN(C(=O)Nc3ccc(C(F)(F)F)cc3)CC2)O[C@@H]2O[C@@]3(C)CC[C@H]4[C@H](C)CC[C@@H]1[C@@]24OO3 [Compound 23],HepG2 Cytotoxicity Bioluminescence Assay: Maximum measured (%),[11]; listed as 23 (WHN-11),50.9% and 55.9%
same,IC50,[11]; listed as 23 (WHN-11),3910 nM
same,IC50 at 72 h,[12],6990 nM
same,EC50 at 72 h,[12],5450 nM
same,IC50,[1],12.2 ± 1.9 nM
same,IC50,[2],1 ± 0.3 nM
same,Emax,[13]; [25],99.5%
same,IC50,"[13]; Plasmodium berghei, HepG2, 48 h, liver stage, HepG2 host cells, luciferase after 48 h, ±SD, read-out: P. berghei sporozoites IC50",82.5 ± 4.17 nM
same,IC50,[13]; [26],79.6 nM
same,inhibition at 10 µM,"[13]; Plasmodium berghei, Conc. 10 μM",105 ± 7.42%
same,IC50,"[13]; two biological replicates listed in one cell, listed as 23 (WHN-11), read-out: P.berghei-Luciferase Liver Stage Bioluminescence Assay: IC50",85.5 nM
same,IC50,[3]; [23],20 ± 9.4 nM
same,IC50,[4]; [27],1 to 2 nM
same,IC50,[5],1.41 ± 0.09 nM
same,IC50,[6],1.55 ± 0.08 nM
same,IC50,[7],1.12 ± 0.13 nM
same,EC50,[8],185000 nM
same,IC50,[9],1.83 ± 0.2 nM
same,EC50,[10],453 nM
C[C@H]1[C@H](N2CCN(C(=O)Nc3ccc(F)cc3)CC2)O[C@@H]2O[C@@]3(C)CC[C@H]4[C@H](C)CC[C@@H]1[C@@]24OO3 [Compound 24],HepG2 Cytotoxicity Bioluminescence Assay: Maximum measured (%),[11]; listed as 24 (WHN-12),59.5% and 66.1%
same,IC50,[11]; listed as 24 (WHN-12),3880 nM
same,IC50 at 72 h,[12],6440 nM
same,EC50 at 72 h,[12],5160 nM
same,IC50,[1],9.2 ± 1.9 nM
same,IC50,[2],17 ± 7 nM
same,Emax,[13]; [25],99.2%
same,IC50,"[13]; Plasmodium berghei, HepG2, 48 h, read-out: P. berghei sporozoites IC50, liver stage, HepG2 host cells, luciferase after 48 h, ±SD",106 ± 6.36 nM
same,inhibition at 10 µM,[13]; Plasmodium berghei,94.8 ± 2.76%
same,IC50,[13]; [26],101 nM
same,IC50,"[13]; two biological replicates listed in one cell, listed as 24 (WHN-12), read-out: P.berghei-Luciferase Liver Stage Bioluminescence Assay: IC50",110 nM
same,IC50,[3],36 ± 10.2 nM
same,IC50,[4]; [27],1 to 2 nM
same,IC50,[5],1.16 ± 0.17 nM
same,IC50,[6],1.3 ± 0.1 nM
same,IC50,[7],0.85 ± 0.1 nM
same,EC50,[8],204000 nM
same,IC50,[9],1.21 ± 0.04 nM
same,EC50,[10],340 nM
CCCCCCCCCCCCCCCC(=O)N1CCN([C@@H]2O[C@@H]3O[C@@]4(C)CC[C@H]5[C@H](C)CC[C@@H]([C@H]2C)[C@@]35OO4)CC1 [Compound 26],IC50,[4]; [24],50 to 100 nM
CC1CCC2C(C)C(N3CCNCC3)OC3OC4(C)CCC1C32OO4 (stereo not shown) [DHA-piperazine 9],IC50,[14],25.7 ± 17.5 nM
same,IC50,[15],1.9 ± 0.5 nM
same,IC50,[16],3.2 ± 1.4 nM
same,IC50,[17],1.4 ± 0.7 nM
same,IC50,[18],3.1 ± 0.4 nM
same,IC50,[19],54.9 ± 5.11 nM
same,IC50,[20],1.7 ± 0.2 nM
"CN(C)c1ccc2nc3ccc(=[N+](C)C)cc-3sc2c1 [MB, methylene blue]",IC50,[14],143 ± 16.7 nM
same,IC50,[15],6.45 ± 0.3 nM
same,IC50,[16],0.3 ± 0.8 nM
same,IC50,[17],5.13 ± 0.31 nM
same,IC50,[18],5 ± 0.8 nM
same,IC50,[19],95 ± 11.3 nM
same,EC50,[21],52600 ± 4500 nM
same,IC50,[20],12.6 ± 4 nM
CC1CCC2C(C)C(N3CCN(C(=O)Nc4ccccc4)CC3)OC3OC4(C)CCC1C32OO4 (stereo not shown) [Phenylurea 10],IC50,[15],2.9 ± 0.6 nM
same,IC50,[16],1.3 ± 0.8 nM
same,IC50,[17],1.7 ± 0.5 nM
same,IC50,[18],4.7 ± 1.5 nM
same,IC50,[19],83 ± 2 nM
same,EC50,"[21]; read-out: Cytotoxicity EC50 CHO, MTT assay, ref Coertzen et al. (2018)",2400 ± 1000 nM
same,IC50,[20],7.5 ± 0.4 nM
same,IC50,"[22]; W2, read-out: W2 IC50",0.12 ± 0.03 nM
same,IC90,"[22]; W2, read-out: W2 IC90",0.2 ± 0.03 nM
